In ChEMBL document CHEMBL1129998, “Pharmacological options in the treatment of benign prostatic hyperplasia” (J Med Chem, 1997):

Experiments:
[1] = target: T1, 3-oxo-5-alpha-steroid 4-dehydrogenase 2 (Homo sapiens, UniProt P31213); experiment: Inhibition of human 5-alpha reductase 2 isozyme.
T1 sequence (P31213 whole entry): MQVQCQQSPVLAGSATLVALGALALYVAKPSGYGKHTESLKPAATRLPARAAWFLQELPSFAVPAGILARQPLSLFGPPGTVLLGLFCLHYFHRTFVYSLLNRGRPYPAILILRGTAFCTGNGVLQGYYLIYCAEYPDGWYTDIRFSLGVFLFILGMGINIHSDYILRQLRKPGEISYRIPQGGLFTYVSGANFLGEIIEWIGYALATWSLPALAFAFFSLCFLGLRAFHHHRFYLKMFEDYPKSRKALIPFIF

[2] = target: T2, 3-oxo-5-alpha-steroid 4-dehydrogenase 1 (Homo sapiens, UniProt P18405); experiment: Inhibitory concentration was tested on human 5-alpha reductase 1 isozyme
T2 sequence (P18405 whole entry): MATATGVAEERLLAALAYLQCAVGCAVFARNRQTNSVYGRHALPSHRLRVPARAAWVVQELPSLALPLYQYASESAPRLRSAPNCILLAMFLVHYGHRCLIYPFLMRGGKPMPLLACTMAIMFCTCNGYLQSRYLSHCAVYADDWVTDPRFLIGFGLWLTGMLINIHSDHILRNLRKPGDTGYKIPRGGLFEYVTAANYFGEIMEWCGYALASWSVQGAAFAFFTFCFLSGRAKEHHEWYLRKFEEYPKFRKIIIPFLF

[3] = target: T3, Steroid 5-alpha-reductase (Rattus norvegicus, UniProt P24008+P31214); experiment: Inhibition of rat 5-alpha reductase isozyme.; type: protein assay
T3 sequence (P24008 whole entry): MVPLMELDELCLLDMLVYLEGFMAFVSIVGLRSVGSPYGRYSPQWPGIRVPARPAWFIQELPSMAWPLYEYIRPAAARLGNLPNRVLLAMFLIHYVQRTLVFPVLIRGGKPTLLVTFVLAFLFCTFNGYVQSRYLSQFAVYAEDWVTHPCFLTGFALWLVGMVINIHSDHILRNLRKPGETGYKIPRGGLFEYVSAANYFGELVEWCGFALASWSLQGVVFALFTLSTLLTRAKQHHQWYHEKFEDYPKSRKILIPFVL
T3 sequence (P31214 whole entry): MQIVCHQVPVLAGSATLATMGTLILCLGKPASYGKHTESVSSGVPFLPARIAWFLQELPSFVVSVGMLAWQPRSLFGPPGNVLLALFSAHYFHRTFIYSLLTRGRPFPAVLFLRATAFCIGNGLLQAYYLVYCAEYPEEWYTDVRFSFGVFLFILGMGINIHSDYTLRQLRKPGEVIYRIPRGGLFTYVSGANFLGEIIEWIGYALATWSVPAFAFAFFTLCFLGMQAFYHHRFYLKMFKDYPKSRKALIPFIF

[4] = target: T4, Alpha-1B adrenergic receptor (Homo sapiens, UniProt P35368); experiment: Binding affinity was tested on human Alpha-1B adrenergic receptor
T4 sequence (P35368 whole entry): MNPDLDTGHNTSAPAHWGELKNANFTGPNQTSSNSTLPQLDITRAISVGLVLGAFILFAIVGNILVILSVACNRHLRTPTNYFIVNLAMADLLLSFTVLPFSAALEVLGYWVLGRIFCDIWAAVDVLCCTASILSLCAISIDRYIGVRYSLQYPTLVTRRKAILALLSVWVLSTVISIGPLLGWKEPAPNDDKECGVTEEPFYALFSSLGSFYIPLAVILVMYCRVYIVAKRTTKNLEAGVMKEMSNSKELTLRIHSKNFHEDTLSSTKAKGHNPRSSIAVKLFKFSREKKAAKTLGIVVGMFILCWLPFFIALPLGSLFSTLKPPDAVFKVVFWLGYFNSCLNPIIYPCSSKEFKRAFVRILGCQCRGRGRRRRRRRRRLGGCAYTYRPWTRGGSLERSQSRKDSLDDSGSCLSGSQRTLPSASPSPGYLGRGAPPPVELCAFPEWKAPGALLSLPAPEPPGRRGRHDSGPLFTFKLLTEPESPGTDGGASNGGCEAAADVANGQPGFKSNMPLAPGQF

[5] = target: T5, Alpha-1A adrenergic receptor (Homo sapiens, UniProt P35348); experiment: Binding affinity was tested on human Alpha-1A adrenergic receptor
T5 sequence (P35348 whole entry): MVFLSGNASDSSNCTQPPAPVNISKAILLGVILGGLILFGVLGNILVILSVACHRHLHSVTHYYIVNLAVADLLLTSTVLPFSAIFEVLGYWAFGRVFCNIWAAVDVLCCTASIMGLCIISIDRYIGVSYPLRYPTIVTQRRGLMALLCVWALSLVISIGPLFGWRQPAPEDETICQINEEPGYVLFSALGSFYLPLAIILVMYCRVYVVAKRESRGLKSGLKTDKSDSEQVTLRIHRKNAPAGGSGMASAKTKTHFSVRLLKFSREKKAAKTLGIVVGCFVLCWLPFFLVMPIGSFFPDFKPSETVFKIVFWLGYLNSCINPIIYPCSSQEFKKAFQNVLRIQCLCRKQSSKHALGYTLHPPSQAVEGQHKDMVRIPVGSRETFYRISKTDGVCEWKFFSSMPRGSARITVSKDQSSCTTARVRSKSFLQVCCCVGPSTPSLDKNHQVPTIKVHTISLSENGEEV

[6] = target: T6, Alpha-1D adrenergic receptor (Homo sapiens, UniProt P25100); experiment: Binding affinity was tested on human Alpha-1D adrenergic receptor
T6 sequence (P25100 whole entry): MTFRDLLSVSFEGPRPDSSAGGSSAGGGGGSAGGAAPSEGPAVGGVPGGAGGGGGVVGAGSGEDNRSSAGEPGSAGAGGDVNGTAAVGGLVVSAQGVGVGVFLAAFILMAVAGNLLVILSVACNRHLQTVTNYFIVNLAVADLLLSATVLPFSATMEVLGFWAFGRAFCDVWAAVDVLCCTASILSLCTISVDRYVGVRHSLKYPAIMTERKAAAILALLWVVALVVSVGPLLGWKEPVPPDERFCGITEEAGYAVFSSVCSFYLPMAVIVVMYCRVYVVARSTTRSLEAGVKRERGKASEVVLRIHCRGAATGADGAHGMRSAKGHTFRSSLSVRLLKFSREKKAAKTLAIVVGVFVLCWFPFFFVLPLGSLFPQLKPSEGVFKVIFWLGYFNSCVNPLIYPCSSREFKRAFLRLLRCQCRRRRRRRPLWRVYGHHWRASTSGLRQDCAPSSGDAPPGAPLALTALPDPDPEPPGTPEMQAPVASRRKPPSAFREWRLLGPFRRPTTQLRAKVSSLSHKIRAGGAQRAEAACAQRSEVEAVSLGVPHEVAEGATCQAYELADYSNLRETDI

[7] = Apparent binding affinity on human 5-alpha reductase isozyme

C[C@]12C=CC(=O)NC1CCC1C2CC[C@@]2(C)C1CC[C@@H]2C(=O)Nc1cc(C(F)(F)F)ccc1C(F)(F)F (some centres undefined)
IC50 [1]: 0.5 nM
IC50 [2]: 2.4 nM

CN1C(=O)CC[C@]2(C)c3ccc(Cl)cc3CCC12 (some centres undefined)
IC50 [2]: 17 nM

CC(C)Cc1ccc([C@H](C)Oc2ccc(C(=O)c3cn(CCCC(=O)O)c4ccccc34)cc2)cc1
IC50 [3]: 1 nM
IC50 [1]: 4 nM
IC50 [2]: 40 nM

CO/C(O)=C1\C(C)=NC(C)=C(C(=O)NCCCCN2CCC(c3ccccc3)(c3ccccc3)CC2)C1c1ccc([N+](=O)[O-])cc1 (centres undefined)
Ki [4]: 64.6 nM
Ki [5]: 5.89 nM
Ki [6]: 145 nM

COc1cc2nc(N3CCN(C(=O)c4ccco4)[C@H]4CCCC[C@H]43)nc(N)c2cc1OC [CYCLAZOSIN]
Ki [5]: 25.1 nM

CO/C(O)=C1\C(C)=NC(C)=C(C(=O)NCCCN2CCC(c3ccccc3)(c3ccccc3)CC2)C1c1ccc(OC(C)C)cc1 (centres undefined)
Ki [4]: 174 nM
Ki [5]: 69.2 nM
Ki [6]: 891 nM

CC(=O)CC(=O)NCCCN1CCC(c2ccccc2)(c2ccccc2)CC1
Ki [5]: 100 nM

Cc1c(O[C@@H](C)c2ccc(CC(C)C)cc2)ccc(C(=O)Nc2ccccc2OCCCC(=O)O)c1C
IC50 [1]: 256 nM

CC(C)Cc1ccc(C(Nc2cccc(C(=O)c3cn(CCCC(=O)O)c4ccccc34)c2)c2ccc(CC(C)C)cc2)cc1
IC50 [3]: 128 nM
IC50 [1]: 36 nM
IC50 [2]: 38 nM

C[C@]12C=CC(=O)NC1CCC1C2CC[C@@]2(C)C1CC[C@@H]2C(=O)Nc1ccccc1 (some centres undefined)
IC50 [1]: < 0.1 nM
IC50 [2]: 20 nM

CC(C)Cc1ccc([C@@H](C)Oc2ccc(C(=O)c3cn(CCCC(=O)O)c4ccccc34)cc2)cc1
IC50 [3]: 30 nM
IC50 [1]: 69 nM
IC50 [2]: 574 nM

Cc1c(C(=O)c2ccc3c(c2)OC(c2ccc(Cl)cc2)(c2ccc(Cl)cc2)O3)c2ccccc2n1CCCC(=O)O
IC50 [3]: 588 nM
IC50 [1]: 6300 nM
IC50 [2]: 10 nM

CC(C)N(C(=O)[C@H]1CCC2C3CC=C4C=C(C(=O)O)CC[C@]4(C)C3CC[C@@]21C)C(C)C (some centres undefined)
Ki [7]: 7 nM

C[C@]12C=CC(=O)NC1CCC1C2CC[C@@]2(C)C1CC[C@@H]2C(=O)Nc1cccc2ccccc12 (some centres undefined)
IC50 [1]: 0.2 nM
IC50 [2]: 8.1 nM

CC(C)N(C(=O)[C@H]1CCC2C3CC=C4C=C([N+](=O)[O-])CC[C@]4(C)C3CC[C@@]21C)C(C)C (some centres undefined)
Ki [7]: 590 nM

CCC1=C(C(=O)NCCCN2CCC(c3ccccc3)(c3ccccc3)CC2)C(c2ccc([N+](=O)[O-])cc2)/C(=C(\O)OC)C(C)=N1 (centres undefined)
Ki [4]: 148 nM
Ki [5]: 0.661 nM
Ki [6]: 204 nM

CCOc1ccccc1OCCN[C@H](C)Cc1ccc(OC)c(S(N)(=O)=O)c1 (stereo in doubt; form 2) [TAMSULOSIN]
Ki [4]: 1.26 nM

COc1cc2nc(N(C)CCCNC(=O)C3CCCO3)nc(N)c2cc1OC (centres undefined) [ALFUZOSIN]
Ki [4]: 10 nM

CCC1=NC(CC)=C(C(=O)NCCCN2CCC(c3ccccc3)(c3ccccc3)CC2)C(c2ccc([N+](=O)[O-])cc2)/C1=C(\O)OC (centres undefined)
Ki [4]: 282 nM
Ki [5]: 1.26 nM
Ki [6]: 447 nM

CCN(CC)C(=O)[C@H]1CC[C@H]2[C@@H]3CC[C@H]4N(C)C(=O)CC[C@]4(C)[C@H]3CC[C@]12C
IC50 [3]: 9.5 nM
IC50 [1]: 1.9 nM
IC50 [2]: 1.7 nM

COc1ccccc1N1CCN(CCN2C(=O)CC3(CCCC3)CC2=O)CC1
Ki [4]: 631 nM

CC(C)CCCC(C)[C@H]1CCC2C3C(CC[C@@]21C)[C@@]1(C)CCC(=O)N(C)C1C[C@@H]3c1ccccc1 (some centres undefined)
IC50 [1]: 428 nM
IC50 [2]: 134 nM

CC(C)N(C(=O)[C@H]1CCC2C3CCC4C=C([N+](=O)[O-])CC[C@]4(C)C3CC[C@@]21C)C(C)C (some centres undefined)
Ki [7]: 50 nM

COc1cccc(OC)c1OCCNCC1COc2ccccc2O1 (centres undefined)
Ki [5]: 0.158 nM

CCCc1ccc(OC(C)c2ccc(C(=O)c3cn(CCCC(=O)O)c4ccccc34)cc2)cc1 (centres undefined)
IC50 [3]: 5 nM
IC50 [1]: 10 nM
IC50 [2]: 8 nM

C[C@]12C=CC(=O)NC1CCC1C2CC[C@@]2(C)C1CC[C@@H]2C(=O)Nc1ccccc1C(F)(F)F (some centres undefined)
IC50 [1]: < 0.1 nM
IC50 [2]: 5.6 nM

C[C@H](Cc1cc2c(c(C(N)=O)c1)N(CCCO)CC2)NCCOc1ccccc1OCC(F)(F)F [SILODOSIN]
Ki [4]: 20 nM
Ki [5]: 0.0398 nM
Ki [6]: 2 nM

CC(C)CCCC(C)[C@H]1CCC2C3CCC4N(C)C(=O)CC[C@]4(C)C3CC[C@@]21C (some centres undefined)
IC50 [1]: 218 nM
IC50 [2]: 1.7 nM

CN(C(=O)[C@H]1CCC2C3CCC4NC(=O)C=C[C@]4(C)C3CC[C@@]21C)c1ccccc1 (some centres undefined)
IC50 [1]: 0.2 nM
IC50 [2]: 350 nM

C[C@]12C=CC(=O)NC1CCC1C2CC[C@@]2(C)C1CC[C@@H]2C(=O)Nc1cccc(-c2ccccc2)c1 (some centres undefined)
IC50 [1]: < 0.1 nM
IC50 [2]: 14 nM

CC(C)N(C(=O)[C@H]1CCC2C3CCC4C=C([N+](=O)[O-])C=CC4(C)C3CC[C@@]21C)C(C)C (single isomer, unassigned)
Ki [7]: > 5000 nM

CCN1C(=O)CC[C@]2(C)C3CC[C@@]4(C)C(CC[C@@H]4C(C)CCCC(C)C)C3[C@@H](C)CC12 (some centres undefined)
IC50 [1]: 1390 nM
IC50 [2]: 3.3 nM

CC(C)CCCC(C)[C@H]1CCC2C3CC=C4NC(=O)CC[C@]4(C)C3CC[C@@]21C (some centres undefined)
IC50 [2]: 19.1 nM

COc1ccc(CCNCC2CCc3ccccc3C2)cc1 (centres undefined)
Ki [4]: 39.8 nM
Ki [5]: 3.98 nM
Ki [6]: 158 nM

COc1c(C)c(C)c(O)c(C)c1CN(C)CCOc1cc(C)c(O)cc1C(C)C
Ki [4]: 1.26 nM
Ki [5]: 0.398 nM
Ki [6]: 1.26 nM

CC(C)Cc1ccc([C@]2(C)Oc3ccc(C(=O)c4cn(CCCC(=O)O)c5ccccc45)cc3O2)cc1
IC50 [3]: 9 nM
IC50 [1]: 23 nM
IC50 [2]: 25 nM

CCOc1ccccc1OCCN[C@H](C)Cc1ccc(OC)c(S(N)(=O)=O)c1 (stereo in doubt; form 3) [TAMSULOSIN]
Ki [4]: 100 nM
Ki [6]: 7.94 nM

O=C(O)c1ccc2c(c1)CCc1cc(Br)ccc1-2
IC50 [1]: 10000 nM
IC50 [2]: 26 nM

C[C@]12C=CC(=O)NC1CCC1C2CC[C@@]2(C)C1CC[C@@H]2C(=O)N(c1ccccc1)c1ccccc1 (some centres undefined)
IC50 [1]: 25.2 nM
IC50 [2]: > 1000 nM
